Reference: paper PMC9310948 (Chemcatchem, 2022)

Biological target: H. orenii β-glucosidase (GH1) (Halothermothrix orenii, UniProt B8CYA8)
Test: p-nitrophenol release, absorbance […] nm
Type: biochemical
Settings: 50 mM HEPES pH 7.4, 10 mM substrate

Chain of H. orenii β-glucosidase (GH1) (B8CYA8 1-451): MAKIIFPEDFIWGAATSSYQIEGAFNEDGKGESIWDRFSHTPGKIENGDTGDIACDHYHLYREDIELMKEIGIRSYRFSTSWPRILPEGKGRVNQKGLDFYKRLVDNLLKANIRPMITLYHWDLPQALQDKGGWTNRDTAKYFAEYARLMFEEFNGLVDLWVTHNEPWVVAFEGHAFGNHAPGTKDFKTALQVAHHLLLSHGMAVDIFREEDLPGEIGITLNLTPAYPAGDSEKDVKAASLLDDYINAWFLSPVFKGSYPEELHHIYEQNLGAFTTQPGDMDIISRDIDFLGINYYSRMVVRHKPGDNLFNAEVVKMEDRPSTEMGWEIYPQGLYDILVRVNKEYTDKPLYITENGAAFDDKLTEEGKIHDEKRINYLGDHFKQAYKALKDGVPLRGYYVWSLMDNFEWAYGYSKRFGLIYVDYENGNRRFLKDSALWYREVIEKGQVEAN

## O=[N+]([O-])c1ccc(O[C@@H]2O[C@H](CO)[C@@H](O)[C@H](O)[C@H]2O)cc1 [p-nitrophenyl glucoside]
  p-nitrophenol release, absorbance 420 nm: monitoring the enzymatic rate of hydrolysis of p‐nitrophenyl glucoside by a UV‐Vis assay
